Measurements reported in the supplement of paper PMC11061612.

How the values were obtained:
Assay in all cases: combination Emax (second highest fraction inhibited in the dose matrix, 72 h); higher = more inhibition; extreme values may be limits of the assay
[1] = system: BE2-M17 (Neuroblastoma)
Method in brief: (§1)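 Cell lines grown in DMEM/F12 or RPMI with 10% FBS were plated in 1536-well plates and held 24 hours at 37°C, 5% CO2 before 72 hours of exposure to two-drug dose matrices, with DMSO typically at 0.2%. CellTiter-Glo 2.0 luminescence gave viability, which was converted to inhibition. Vehicle wells were set to 0 and blank wells to 1. Combination Emax is the second-highest inhibition in the matrix, and Bliss excess is the observed combination effect minus the expected EA + EB − EA·EB, where EA and EB are the single-agent effects.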

[2] = system: BFTC-909 (Kidney Carcinoma)
Method in brief: as §1

[3] = system: BPH-1 (Non-Cancerous)
Method in brief: as §1

[4] = system: CAL-33 (Oral Cavity Carcinoma)
Method in brief: as §1

[5] = system: CAL-72 (Osteosarcoma)
Method in brief: as §1

[6] = system: Detroit562 (Head and Neck Carcinoma)
Method in brief: as §1

[7] = system: EW-11 (Ewing's Sarcoma)
Method in brief: as §1

[8] = system: FTC-133 (Thyroid Gland Carcinoma)
Method in brief: as §1

[9] = system: GAMG (Glioblastoma)
Method in brief: as §1

[10] = system: HeLa (Cervical Carcinoma)
Method in brief: as §1

[11] = system: Hs-746T (Gastric Carcinoma)
Method in brief: as §1

[12] = system: KMRC-20 (Kidney Carcinoma)
Method in brief: as §1

[13] = system: KYAE-1 (Esophageal Adenocarcinoma)
Method in brief: as §1

[14] = system: L-428 (Hodgkin's Lymphoma)
Method in brief: as §1

[15] = system: MPP-89 (Mesothelioma)
Method in brief: as §1

[16] = system: NCI-H209 (Small Cell Lung Carcinoma)
Method in brief: as §1

[17] = system: NUGC-4 (Gastric Carcinoma)
Method in brief: as §1

[18] = system: SAS (Oral Cavity Carcinoma)
Method in brief: as §1

[19] = system: SW1573 (Lung Adenocarcinoma)
Method in brief: as §1

Structure (SMILES)	combination Emax [1]	combination Emax [2]	combination Emax [3]	combination Emax [4]	combination Emax [5]	combination Emax [6]	combination Emax [7]	combination Emax [8]	combination Emax [9]	combination Emax [10]	combination Emax [11]	combination Emax [12]	combination Emax [13]	combination Emax [14]	combination Emax [15]	combination Emax [16]	combination Emax [17]	combination Emax [18]	combination Emax [19]
C[C@@H]1COCCN1c1cc(C2([S@](C)(=N)=O)CC2)nc(-c2ccnc3[nH]ccc23)n1 [AZD6738] + O=C(c1cc(Cc2n[nH]c(=O)c3ccccc23)ccc1F)N1CCN(C(=O)C2CC2)CC1 [Olaparib] (first compound max 10 µM, 7x7, partner max 10 µM)	0.74	0.728	0.51	0.763	0.8	0.862	0.72	0.672	0.388	0.713	0.582	0.542	0.139	0.728	0.619	0.94	0.551	0.839	0.217
CN(C)CCCOc1ccc(-c2ccc3ncc4c(c3c2)n(C2CCOCC2)c(=O)n4C)cn1 [AZD0156] + C[C@@H]1COCCN1C2=NC(=NC(=C2)C3(CC3)[S@](=N)(=O)C)C4=C5C=CNC5=NC=C4 [AZD6738] (first compound max 1 µM, 7x7, partner max 10 µM)	0.928	0.813	0.427	0.782	0.889	0.88	0.668	0.666	0.422	0.679	0.636	0.65	0.0979	0.777	0.63	0.854	0.639	0.855	0.196
COc1cccc(OCCCN)c1-c1cc(Nc2cnc(C#N)cn2)n[nH]1 [Prexasertib] + CN(C)CCCOc1ccc(-c2ccc3ncc4c(c3c2)n(C2CCOCC2)c(=O)n4C)cn1 [AZD0156] (first compound max 1 µM, 7x7, partner max 1 µM)	0.983	0.936	0.235	0.807	0.847	0.922	0.756	0.805	0.843	0.859	0.78	0.924	0.594	0.958	0.724	0.94	0.49	0.926	0.201
C=CCn1c(=O)c2cnc(Nc3ccc(N4CCN(C)CC4)cc3)nc2n1-c1cccc(C(C)(C)O)n1 [AZD1775] + O=C(c1cc(Cc2n[nH]c(=O)c3ccccc23)ccc1F)N1CCN(C(=O)C2CC2)CC1 [Olaparib] (first compound max 1 µM, partner max 10 µM)	0.462	0.595	0.488	0.721	0.756	0.669	0.599	0.602	0.486	0.694	0.591	0.567	0.468	0.842	0.508	0.922	0.302	0.577	0.317
CCN(CCO)CCCOc1ccc2c(Nc3cc(CC(=O)Nc4cccc(F)c4)[nH]n3)ncnc2c1 [AZD2811] + C=CCn1c(=O)c2cnc(Nc3ccc(N4CCN(C)CC4)cc3)nc2n1-c1cccc(C(C)(C)O)n1 [AZD1775] (first compound max 1 µM, partner max 1 µM)	0.618	0.683	0.679	0.877	0.728	0.828	0.469	0.685	0.417	0.449	0.436	0.6	0.395	0.824	0.511	0.879	0.227	0.43	0.283
COc1cccc(OCCCN)c1-c1cc(Nc2cnc(C#N)cn2)n[nH]1 [Prexasertib] + Cc1cc2ncnn2cc1Nc1ncc2c(n1)n(C1CCOCC1)c(=O)n2C [AZD7648] (first compound max 1 µM, 7x7, partner max 10 µM)	0.983	0.945	0.319	0.816	0.994	0.922	0.742	0.82	0.777	0.839	0.78	0.858	0.467	0.958	0.734	0.974	0.493	0.926	0.201
CN(C)CCCOc1ccc(-c2ccc3ncc4c(c3c2)n(C2CCOCC2)c(=O)n4C)cn1 [AZD0156] + C=CCn1c(=O)c2cnc(Nc3ccc(N4CCN(C)CC4)cc3)nc2n1-c1cccc(C(C)(C)O)n1 [AZD1775] (first compound max 1 µM, partner max 1 µM)	0.57	0.67	0.457	0.643	0.778	0.606	0.486	0.536	0.266	0.498	0.491	0.596	0.426	0.824	0.522	0.84	0.273	0.548	0.268
